Measurements: patent publication US20080139386A1 (priority 2004, published 2008)
Read-outs that look alike come from different tables or passages of the source.

Test system: Pyricularia oryzae
Type: in vivo
Conditions: rice seedlings cultivar Tai-Nong 67, protective, inoculated next day, assessed after six days

| SMILES | Efficacy in % of the untreated control (4 ppm active compound in the spray liquor) [%] | Efficacy in % of the untreated control (1 ppm active compound in the spray liquor) [%] | Efficacy in % of the untreated control (16 ppm active compound in the spray liquor) [%] |
| --- | --- | --- | --- |
| CC1CCN(c2c(-c3c(F)cc(F)cc3F)c(Cl)nc3ncnn23)CC1 [compound I, 5-chloro-7-(4-methylpiperidin-1-yl)-6-(2,4,6-trifluorophenyl)-[1,2,4]triazolo[1,5-a]pyrimidine] | 31 | – | – |
| O=C(Nc1ccccc1)N(Cc1ccc(Cl)cc1)C1CCCC1 [compound II, 1-(4-chlorobenzyl)-1-cyclopentyl-3-phenylurea] | – | 0 | 0 |
